These results are taken from patent publication US8969356B2, “Compounds useful as inhibitors of ATR kinase” (Vertex Pharmaceuticals Incorporated, priority 2010, dated 2015).

The target of this assay is T1, ATR kinase (Homo sapiens, UniProt Q13535).
T1 construct: Assays were carried out at 25° C. in the presence of 5 nM full-length ATR
In words: ATR Inhibition Assay (radioactive-phosphate incorporation). It counts as biochemical. The protocol: Compounds were screened for their ability to inhibit ATR kinase using a radioactive-phosphate incorporation assay. Assays were carried out in a mixture of 50 mM Tris/HCl (pH 7.5), 10 mM MgCl2 and 1 mM DTT. Final substrate concentrations were 10 μM [γ-33P]ATP (3mCi 33P ATP/mmol ATP, Perkin Elmer) and 800 μM target peptide ([…] (SEQ. ID NO: 1)).
Assays were carried out at 25° C. in the presence of 5 nM full-length ATR. An assay stock buffer solution was prepared containing all of the reagents listed above, with the exception of ATP and the test compound of interest. 13.5 μL of the stock solution was placed in a 96 well plate followed by addition of 2 μL of DMSO stock containing serial dilutions of the test compound (typically starting from a final concentration of 15 μM with 3-fold serial dilutions) in duplicate (final DMSO concentration 7%). The plate was pre-incubated for 10 minutes at 25° C. and the reaction initiated by addition of 15 μL [γ-33P]ATP (final concentration 10 μM).
The reaction was stopped after […] by the addition of 30 μL 0.1M phosphoric acid containing 2 mM ATP. A multiscreen phosphocellulose filter 96-well plate (Millipore, Cat no. MAPHN0B50) was pretreated with 100 μL 0.2M phosphoric acid prior to the addition of 45 μL of the stopped assay mixture. The plate was washed with 5×200 μL 0.2M phosphoric acid. After drying, 100 μL Optiphase ‘SuperMix’ liquid scintillation cocktail (Perkin Elmer) was added to the well prior to scintillation counting (1450 Microbeta Liquid Scintillation Counter, Wallac).
After removing mean background values for all of the data points, Ki(app) data were calculated from non-linear regression analysis of the initial rate data using the Prism software package (GraphPad Prism version 3.0cx for Macintosh, GraphPad Software, San Diego Calif., USA).

A value given as a limit tells only on which side of the number the result lay.

Usually Ki stands for the dissociation constant of the complex between target and ligand, obtained from inhibition or displacement.

T1 sequence (Q13535 whole entry): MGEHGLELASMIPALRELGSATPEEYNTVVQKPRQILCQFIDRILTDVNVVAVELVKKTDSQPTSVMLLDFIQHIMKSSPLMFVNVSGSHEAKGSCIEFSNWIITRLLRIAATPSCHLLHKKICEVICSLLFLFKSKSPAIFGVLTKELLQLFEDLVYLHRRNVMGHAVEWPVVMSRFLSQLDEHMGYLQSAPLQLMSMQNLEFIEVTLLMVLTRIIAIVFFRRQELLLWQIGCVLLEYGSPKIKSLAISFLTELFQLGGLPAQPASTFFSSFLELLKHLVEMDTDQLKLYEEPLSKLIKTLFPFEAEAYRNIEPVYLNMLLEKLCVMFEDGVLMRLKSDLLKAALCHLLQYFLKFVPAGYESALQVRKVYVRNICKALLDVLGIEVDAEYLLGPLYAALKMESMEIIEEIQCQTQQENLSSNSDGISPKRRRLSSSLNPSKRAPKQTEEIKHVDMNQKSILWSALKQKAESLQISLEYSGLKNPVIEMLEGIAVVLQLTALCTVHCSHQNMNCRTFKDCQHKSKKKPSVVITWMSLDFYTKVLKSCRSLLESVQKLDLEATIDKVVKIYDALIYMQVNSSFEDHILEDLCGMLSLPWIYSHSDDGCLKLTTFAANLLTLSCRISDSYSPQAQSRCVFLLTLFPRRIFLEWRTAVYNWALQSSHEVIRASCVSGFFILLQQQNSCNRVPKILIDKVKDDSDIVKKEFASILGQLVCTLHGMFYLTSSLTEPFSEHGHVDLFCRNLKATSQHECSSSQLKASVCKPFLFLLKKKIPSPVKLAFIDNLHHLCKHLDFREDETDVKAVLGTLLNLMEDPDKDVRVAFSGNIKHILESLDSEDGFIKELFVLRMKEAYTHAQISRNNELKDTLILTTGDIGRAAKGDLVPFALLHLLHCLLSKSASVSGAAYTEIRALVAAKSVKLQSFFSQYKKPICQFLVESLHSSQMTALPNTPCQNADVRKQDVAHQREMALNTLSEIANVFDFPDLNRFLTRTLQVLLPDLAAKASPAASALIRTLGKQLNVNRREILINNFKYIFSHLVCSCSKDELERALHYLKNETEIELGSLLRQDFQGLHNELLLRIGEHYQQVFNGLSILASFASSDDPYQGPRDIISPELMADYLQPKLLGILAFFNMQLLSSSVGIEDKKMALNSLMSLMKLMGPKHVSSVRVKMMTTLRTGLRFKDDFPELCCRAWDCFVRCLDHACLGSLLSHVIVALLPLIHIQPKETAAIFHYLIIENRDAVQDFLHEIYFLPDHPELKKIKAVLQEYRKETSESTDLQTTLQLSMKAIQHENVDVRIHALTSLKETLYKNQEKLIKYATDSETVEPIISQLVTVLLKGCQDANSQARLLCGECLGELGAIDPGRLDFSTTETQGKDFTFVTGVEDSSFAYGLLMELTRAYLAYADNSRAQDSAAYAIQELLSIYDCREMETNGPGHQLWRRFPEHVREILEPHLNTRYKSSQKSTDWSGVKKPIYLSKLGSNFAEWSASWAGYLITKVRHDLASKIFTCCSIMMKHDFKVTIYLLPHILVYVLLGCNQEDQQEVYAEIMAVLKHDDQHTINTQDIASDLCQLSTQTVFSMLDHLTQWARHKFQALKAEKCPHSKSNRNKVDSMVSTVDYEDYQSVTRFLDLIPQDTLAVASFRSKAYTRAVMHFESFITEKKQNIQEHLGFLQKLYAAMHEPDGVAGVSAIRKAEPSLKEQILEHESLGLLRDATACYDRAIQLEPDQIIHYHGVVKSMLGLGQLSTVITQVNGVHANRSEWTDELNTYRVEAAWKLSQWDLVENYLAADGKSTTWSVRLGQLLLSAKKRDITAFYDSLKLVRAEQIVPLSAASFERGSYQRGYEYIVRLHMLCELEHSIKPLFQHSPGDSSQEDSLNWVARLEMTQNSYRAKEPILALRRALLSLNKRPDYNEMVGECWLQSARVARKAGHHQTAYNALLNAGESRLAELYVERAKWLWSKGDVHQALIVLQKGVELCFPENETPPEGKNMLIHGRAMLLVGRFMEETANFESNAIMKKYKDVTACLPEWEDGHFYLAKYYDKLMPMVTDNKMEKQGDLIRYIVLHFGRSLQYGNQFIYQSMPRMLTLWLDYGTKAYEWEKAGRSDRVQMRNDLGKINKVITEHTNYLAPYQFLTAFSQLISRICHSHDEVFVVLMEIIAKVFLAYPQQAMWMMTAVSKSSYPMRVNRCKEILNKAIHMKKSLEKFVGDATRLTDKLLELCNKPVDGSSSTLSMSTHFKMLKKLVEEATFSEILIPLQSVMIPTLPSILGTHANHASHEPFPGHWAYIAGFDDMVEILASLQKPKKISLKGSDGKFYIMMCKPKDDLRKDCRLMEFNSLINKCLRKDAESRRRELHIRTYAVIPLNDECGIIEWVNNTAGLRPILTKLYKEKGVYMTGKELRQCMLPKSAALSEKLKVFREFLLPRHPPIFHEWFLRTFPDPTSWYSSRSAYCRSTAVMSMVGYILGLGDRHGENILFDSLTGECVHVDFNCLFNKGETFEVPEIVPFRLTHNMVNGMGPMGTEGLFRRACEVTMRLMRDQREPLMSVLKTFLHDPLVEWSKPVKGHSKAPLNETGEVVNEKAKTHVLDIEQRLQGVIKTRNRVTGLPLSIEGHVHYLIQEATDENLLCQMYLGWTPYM

`C#Cc1nc(-c2ccc(S(=O)(=O)C(C)C)cc2)cnc1N` [Compound I-5, 3-Ethynyl-5-(4-isopropylsulfonylphenyl)pyrazin-2-amine]: the Ki is 100 to 1000 nM.
Consider `CC(C)S(=O)(=O)c1ccc(-c2cnc(N)c(C#Cc3ccccc3N3CCNCC3)n2)cc1` [Compound I-43, 5-(4-(isopropylsulfonyl)phenyl)-3-((2-(piperazin-1-yl)phenyl)ethynyl)pyrazin-2-amine], for which the Ki was at most 100 nM.
On to `CC(C)S(=O)(=O)c1ccc(-c2cnc(N)c(C#Cc3cc(Cl)cc(CO)c3)n2)cc1` [Compound I-48, (3-((3-amino-6-(4-(isopropylsulfonyl)phenyl)pyrazin-2-yl)ethynyl)-5-chlorophenyl)methanol], for which the Ki was at most 100 nM.
For `CC(C)S(=O)(=O)c1ccc(-c2cnc(N)c(C#Cc3ccccc3N)n2)cc1` [Compound I-38, 3-((2-aminophenyl)ethynyl)-5-(4-(isopropylsulfonyl)phenyl)pyrazin-2-amine], the Ki lay within 100 to 1000 nM.
Turning to `CC(C)S(=O)(=O)c1ccc(-c2cnc(N)c(C#Cc3ccc(C(O)CN)cc3)n2)cc1` (centres unmarked) [Compound I-42, 2-amino-1-(4-((3-amino-6-(4-(isopropylsulfonyl)phenyl)pyrazin-2-yl)ethynyl)phenyl)ethanol], the Ki is at most 100 nM.
Regarding `C[S+]([O-])c1ccccc1-c1cnc(N)c(C#Cc2cccc(O)c2)n1` (centres unmarked) [Compound I-23, 3-[2-[3-Amino-6-(2-methylsulfinylphenyl)pyrazin-2-yl]ethynyl]phenol], the Ki was at most 100 nM.
Take `CC(C)S(=O)(=O)c1ccc(-c2cnc(N)c(C#Cc3cccc4[nH]ncc34)n2)cc1` [Compound I-44, 3-((1H-indazol-4-yl)ethynyl)-5-(4-(isopropylsulfonyl)phenyl)pyrazin-2-amine]: the Ki was at most 100 nM.
In the case of `CC(C)S(=O)(=O)c1ccc(-c2cnc(N)c(C#Cc3cccc(OCCCN)c3)n2)cc1` [Compound I-24, 3-[2-[3-(3-Aminopropoxy)phenyl]ethynyl]-5-(4-isopropylsulfonylphenyl)pyrazin-2-amine] it was at most 100 nM; in that of `CC(C)S(=O)(=O)c1ccc(-c2cnc(N)c(C#Cc3ccncc3)n2)cc1` [Compound I-32, 5-(4-Isopropylsulfonylphenyl)-3-[2-(4-pyridyl)ethynyl]pyrazin-2-amine], at most 100 nM.
As to `CC(C)S(=O)(=O)c1ccc(-c2cnc(N)c(C#CC3CCCCC3)n2)cc1` [Compound I-8, 3-(2-Cyclohexylethynyl)-5-(4-isopropylsulfonylphenyl)pyrazin-2-amine], the Ki lay in the range of 100 to 1000 nM.
For `COc1ccccc1C#Cc1nc(-c2ccc(S(=O)(=O)C(C)C)cc2)cnc1N` [Compound I-19, 5-(4-Isopropylsulfonylphenyl)-3-[2-(2-methoxyphenyl)ethynyl]pyrazin-2-amine] the value was 100 to 1000 nM.
For `CC(C)S(=O)(=O)c1ccc(-c2cnc(N)c(C#Cc3cccc(F)c3)n2)cc1` [Compound I-1, 3-[2-(3-Fluorophenyl)ethynyl]-5-(4-isopropylsulfonylphenyl)pyrazin-2-amine] the value was at most 100 nM; for `CC(C)S(=O)(=O)c1ccc(-c2cnc(N)c(C#Cc3ccc(C#N)cc3)n2)cc1` [Compound I-15, 4-[2-[3-Amino-6-(4-isopropylsulfonylphenyl)pyrazin-2-yl]ethynyl]benzonitrile], 1000 to 13000 nM; for `CNCc1cccc(C#Cc2nc(-c3ccc(S(=O)(=O)C(C)C)cc3)cnc2N)c1` [Compound I-28, 5-(4-Isopropylsulfonylphenyl)-3-[2-[3-(methylaminomethyl)phenyl]ethynyl]pyrazin-2-amine], at most 100 nM.
In the case of `CC(=O)Nc1cccc(C#Cc2nc(-c3ccc(S(=O)(=O)C(C)C)cc3)cnc2N)c1` [Compound I-6, N-[3-[2-[3-Amino-6-(4-isopropylsulfonylphenyl)pyrazin-2-yl]ethynyl]phenyl]acetamide] it was at most 100 nM; in that of `CC(C)S(=O)(=O)c1ccc(-c2cnc(N)c(C#Cc3cccnc3)n2)cc1` [Compound I-13, 5-(4-Isopropylsulfonylphenyl)-3-[2-(3-pyridyl)ethynyl]pyrazin-2-amine], at most 100 nM.
`CC(C)S(=O)(=O)c1ccc(-c2cnc(N)c(C#Cc3cccc(C(N)=O)c3)n2)cc1` [Compound I-37, 3-[2-[3-Amino-6-(4-isopropylsulfonylphenyl)pyrazin-2-yl]ethynyl]benzamide]: the Ki was at most 100 nM.
For `CC(C)S(=O)(=O)c1ccc(-c2cnc(N)c(C#Cc3cncn3C)n2)cc1` [Compound I-39] the value was at most 100 nM.
On to `CC(C)S(=O)(=O)c1ccc(-c2cnc(N)c(C#Cc3ccc(F)cc3)n2)cc1` [Compound I-14, 3-[2-(4-Fluorophenyl)ethynyl]-5-(4-isopropylsulfonylphenyl)pyrazin-2-amine], for which the Ki was at most 100 nM.
In the case of `CCC(=O)N1CC=C(c2cnc(N)c(C#Cc3cccc(O)c3)n2)CC1` [Compound I-30, 1-[4-[5-Amino-6-[2-(3-hydroxyphenyl)ethynyl]pyrazin-2-yl]-3,6-dihydro-2H-pyridin-1-yl]propan-1-one] it was at most 100 nM; in that of `CC(C)S(=O)(=O)c1ccc(-c2cnc(N)c(C#Cc3cccc(NC(=O)CN)c3)n2)cc1` [Compound I-49, 2-amino-N-(3-((3-amino-6-(4-(isopropylsulfonyl)phenyl)pyrazin-2-yl)ethynyl)phenyl)acetamide], at most 100 nM; in that of `CC(C)S(=O)(=O)c1ccc(-c2cnc(N)c(C#Cc3cccc4ccccc34)n2)cc1` [Compound I-2, 5-(4-Isopropylsulfonylphenyl)-3-[2-(1-naphthyl)ethynyl]pyrazin-2-amine], at most 100 nM.
`COc1cccc(C#Cc2nc(-c3ccc(S(=O)(=O)C(C)C)cc3)cnc2N)c1` [Compound I-3, 5-(4-Isopropylsulfonylphenyl)-3-[2-(3-methoxyphenyl)ethynyl]pyrazin-2-amine]: the Ki is at most 100 nM.
In the case of `Nc1ncc(-c2ccc(S(=O)(=O)C3CCNCC3)cc2)nc1C#Cc1cccc(O)c1` [Compound I-17, 3-[2-[3-Amino-6-[4-(4-piperidylsulfonyl)phenyl]pyrazin-2-yl]ethynyl]phenol] it was at most 100 nM; in that of `Cc1cccc(C#Cc2nc(-c3ccc(S(=O)(=O)C(C)C)cc3)cnc2N)c1` [Compound I-11, 5-(4-Isopropylsulfonylphenyl)-3-[2-(m-tolyl)ethynyl]pyrazin-2-amine], at most 100 nM; in that of `CC(C)S(=O)(=O)c1ccc(-c2cnc(N)c(C#Cc3ccc4[nH]ncc4c3)n2)cc1` [Compound I-45, 3-((1H-indazol-5-yl)ethynyl)-5-(4-(isopropylsulfonyl)phenyl)pyrazin-2-amine], at most 100 nM.
Turning to `CC(C)S(=O)(=O)c1ccc(-c2cnc(N)c(C#Cc3ccsc3)n2)cc1` [Compound I-31, 5-(4-Isopropylsulfonylphenyl)-3-[2-(3-thienyl)ethynyl]pyrazin-2-amine], the Ki is 100 to 1000 nM.
In the case of `CC(C)S(=O)(=O)c1ccc(-c2cnc(N)c(C#Cc3ccccc3Cl)n2)cc1` [Compound I-12, 3-[2-(2-Chlorophenyl)ethynyl]-5-(4-isopropylsulfonylphenyl)pyrazin-2-amine] it was at most 100 nM.
Regarding `CC(C)S(=O)(=O)c1ccc(-c2cnc(N)c(C#C[C@H](C)O)n2)cc1` [Compound I-29, (2S)-4-[3-Amino-6-(4-isopropylsulfonylphenyl)pyrazin-2-yl]but-3-yn-2-ol], the Ki is 1000 to 13000 nM.
Consider `CC(C)S(=O)(=O)c1ccc(-c2cnc(N)c(C#Cc3cccc(OCCCN(C)C)c3)n2)cc1` [Compound I-20, 3-[2-[3-[3-(Dimethylamino)propoxy]phenyl]ethynyl]-5-(4-isopropylsulfonylphenyl)pyrazin-2-amine], for which the Ki is at most 100 nM.
For `CC(C)S(=O)(=O)c1ccc(-c2cnc(N)c(C#Cc3cccc(OCCN4CCOCC4)c3)n2)cc1` [Compound I-36, 5-(4-Isopropylsulfonylphenyl)-3-[2-[3-(2-morpholinoethoxy)phenyl]ethynyl]pyrazin-2-amine] the value was 100 to 1000 nM; for `Cc1ccc(O)cc1C#Cc1nc(-c2ccc(S(=O)(=O)C(C)C)cc2)cnc1N` [Compound I-47, 3-((3-amino-6-(4-(isopropylsulfonyl)phenyl)pyrazin-2-yl)ethynyl)-4-methylphenol], at most 100 nM; for `CC(C)S(=O)(=O)c1ccc(-c2cnc(N)c(C#C[C@@H](C)O)n2)cc1` [Compound I-4, (2R)-4-[3-Amino-6-(4-isopropylsulfonylphenyl)pyrazin-2-yl]but-3-yn-2-ol], 100 to 1000 nM.
In the case of `CC(C)S(=O)(=O)c1ccc(-c2cnc(N)c(C#Cc3cccc(N)n3)n2)cc1` [Compound I-41, 3-((6-aminopyridin-2-yl)ethynyl)-5-(4-(isopropylsulfonyl)phenyl)pyrazin-2-amine] it was at most 100 nM.
In the case of `N#Cc1ccccc1-c1cnc(N)c(C#Cc2cccc(O)c2)n1` [Compound I-18, 2-[5-Amino-6-[2-(3-hydroxyphenyl)ethynyl]pyrazin-2-yl]benzonitrile] it was at most 100 nM.
